This test deals with T1, ATM protein immunoprecipitated from HeLa cell nuclear extract (Homo sapiens, UniProt Q13315).
T1 construct: ATM protein was immunoprecipitated from HeLa cell nuclear extract; endogenous in cells; host or cells: HeLa cell nuclear extract (immunoprecipitated with rabbit polyclonal anti-ATM antiserum)
The test is described as follows: In vitro ATM inhibition assay (phosphorylation of GSTp53N66 on serine 15, chemiluminescent detection). Also: tested normally from 100 µM down to 0.1 nM. As to conditions: read-out: IC50 values (the concentration at which 50% of the enzyme activity is inhibited), ATM inhibition. Format: biochemical. In outline: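 Immunoprecipitated HeLa nuclear ATM (C-terminal anti-sera) with GSTp53N66 substrate in Hepes pH 7.4 buffer with MgCl2/MnCl2; inhibitor preincubated 10 min at 37 °C, then Na-ATP added, 1 h at 37 °C.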

Some results are limits rather than exact numbers.

T1 sequence (Q13315 whole entry): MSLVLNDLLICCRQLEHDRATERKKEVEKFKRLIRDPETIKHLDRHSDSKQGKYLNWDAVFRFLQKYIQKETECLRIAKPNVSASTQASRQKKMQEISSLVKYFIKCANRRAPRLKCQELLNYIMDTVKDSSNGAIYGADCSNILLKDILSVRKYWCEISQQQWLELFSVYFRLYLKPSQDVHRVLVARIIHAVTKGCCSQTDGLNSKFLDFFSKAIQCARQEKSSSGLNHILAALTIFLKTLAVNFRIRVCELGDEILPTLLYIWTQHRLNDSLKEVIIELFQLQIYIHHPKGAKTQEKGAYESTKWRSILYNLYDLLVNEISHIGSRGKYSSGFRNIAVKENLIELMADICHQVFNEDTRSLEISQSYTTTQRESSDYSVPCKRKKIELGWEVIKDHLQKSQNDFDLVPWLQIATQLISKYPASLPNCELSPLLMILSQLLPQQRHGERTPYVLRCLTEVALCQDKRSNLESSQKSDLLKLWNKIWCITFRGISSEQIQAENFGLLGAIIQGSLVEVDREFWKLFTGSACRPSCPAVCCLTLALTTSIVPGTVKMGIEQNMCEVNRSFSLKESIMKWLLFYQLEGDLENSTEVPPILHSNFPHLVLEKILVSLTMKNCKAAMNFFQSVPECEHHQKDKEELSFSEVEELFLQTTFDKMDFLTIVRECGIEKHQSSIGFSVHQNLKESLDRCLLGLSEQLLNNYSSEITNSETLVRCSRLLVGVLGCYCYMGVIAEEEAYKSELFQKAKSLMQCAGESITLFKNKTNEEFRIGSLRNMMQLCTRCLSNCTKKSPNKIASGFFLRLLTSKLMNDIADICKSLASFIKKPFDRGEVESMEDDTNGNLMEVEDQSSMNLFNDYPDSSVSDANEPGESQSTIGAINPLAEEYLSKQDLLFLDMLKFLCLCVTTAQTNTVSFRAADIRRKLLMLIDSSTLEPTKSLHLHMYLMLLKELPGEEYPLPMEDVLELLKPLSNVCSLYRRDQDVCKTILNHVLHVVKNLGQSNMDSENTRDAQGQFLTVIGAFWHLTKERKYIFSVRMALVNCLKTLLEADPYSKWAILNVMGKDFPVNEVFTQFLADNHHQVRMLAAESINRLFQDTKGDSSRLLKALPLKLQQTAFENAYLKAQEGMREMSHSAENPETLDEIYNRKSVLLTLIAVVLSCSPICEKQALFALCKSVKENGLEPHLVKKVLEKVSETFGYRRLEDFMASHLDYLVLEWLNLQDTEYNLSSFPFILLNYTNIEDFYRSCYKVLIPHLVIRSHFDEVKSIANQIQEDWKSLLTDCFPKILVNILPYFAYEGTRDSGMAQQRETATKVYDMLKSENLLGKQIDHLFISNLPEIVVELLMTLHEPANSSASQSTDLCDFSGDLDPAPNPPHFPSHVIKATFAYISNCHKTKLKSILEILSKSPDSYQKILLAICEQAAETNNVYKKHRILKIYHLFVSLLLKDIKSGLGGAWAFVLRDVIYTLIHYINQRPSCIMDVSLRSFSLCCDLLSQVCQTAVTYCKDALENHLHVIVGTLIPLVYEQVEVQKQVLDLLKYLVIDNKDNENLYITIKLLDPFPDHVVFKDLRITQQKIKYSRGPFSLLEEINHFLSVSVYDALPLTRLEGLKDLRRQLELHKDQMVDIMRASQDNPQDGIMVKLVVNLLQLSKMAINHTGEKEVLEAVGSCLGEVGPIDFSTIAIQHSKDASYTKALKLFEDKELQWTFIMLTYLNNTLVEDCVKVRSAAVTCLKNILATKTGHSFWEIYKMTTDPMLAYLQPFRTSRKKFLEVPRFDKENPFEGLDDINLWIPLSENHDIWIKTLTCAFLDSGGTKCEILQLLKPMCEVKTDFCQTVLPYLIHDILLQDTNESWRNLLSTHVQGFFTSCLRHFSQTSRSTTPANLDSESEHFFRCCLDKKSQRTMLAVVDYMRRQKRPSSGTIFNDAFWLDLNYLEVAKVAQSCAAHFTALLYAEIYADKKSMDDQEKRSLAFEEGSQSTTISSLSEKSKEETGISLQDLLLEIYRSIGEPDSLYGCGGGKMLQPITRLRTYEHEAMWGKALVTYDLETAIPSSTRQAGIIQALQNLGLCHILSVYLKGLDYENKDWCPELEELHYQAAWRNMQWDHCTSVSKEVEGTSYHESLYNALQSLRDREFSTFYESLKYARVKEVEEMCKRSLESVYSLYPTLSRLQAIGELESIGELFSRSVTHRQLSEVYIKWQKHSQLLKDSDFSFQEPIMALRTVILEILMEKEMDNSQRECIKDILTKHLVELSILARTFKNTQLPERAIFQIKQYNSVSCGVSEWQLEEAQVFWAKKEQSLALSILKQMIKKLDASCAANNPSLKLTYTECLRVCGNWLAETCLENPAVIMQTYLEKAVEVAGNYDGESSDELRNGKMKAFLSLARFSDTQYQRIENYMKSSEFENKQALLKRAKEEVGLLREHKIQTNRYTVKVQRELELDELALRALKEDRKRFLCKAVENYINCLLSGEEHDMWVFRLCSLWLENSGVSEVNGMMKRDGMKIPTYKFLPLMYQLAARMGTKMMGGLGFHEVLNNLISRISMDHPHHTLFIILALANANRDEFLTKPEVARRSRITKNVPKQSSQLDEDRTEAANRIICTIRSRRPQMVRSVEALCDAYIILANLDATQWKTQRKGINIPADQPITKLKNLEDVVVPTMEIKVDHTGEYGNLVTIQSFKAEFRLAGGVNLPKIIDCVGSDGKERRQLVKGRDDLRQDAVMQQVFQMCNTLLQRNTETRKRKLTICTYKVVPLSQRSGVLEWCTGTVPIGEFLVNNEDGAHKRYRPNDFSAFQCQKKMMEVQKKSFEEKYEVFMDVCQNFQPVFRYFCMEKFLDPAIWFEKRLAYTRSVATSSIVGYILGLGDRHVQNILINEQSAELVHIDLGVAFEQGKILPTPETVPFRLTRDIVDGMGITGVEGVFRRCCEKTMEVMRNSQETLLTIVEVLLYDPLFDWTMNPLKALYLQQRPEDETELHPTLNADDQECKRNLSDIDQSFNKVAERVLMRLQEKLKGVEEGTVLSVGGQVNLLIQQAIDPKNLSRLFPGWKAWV

On to `CCCCNC(=O)COc1ccc2c(c1)Sc1cccc(-c3cc(=O)cc(N4CCOCC4)o3)c1S2` [Compound 407], for which the IC50 is < 200 nM. To `N#CCNC(=O)COc1ccc2c(c1)Sc1cccc(-c3cc(=O)cc(N4CCOCC4)o3)c1S2` [Compound 409] belongs < 200 nM; to `O=C(COc1ccc2c(c1)Sc1cccc(-c3cc(=O)cc(N4CCOCC4)o3)c1S2)NC(CO)(CO)CO` [Compound 410], < 200 nM. The value for `O=C(COc1ccc2c(c1)Sc1cccc(-c3cc(=O)cc(N4CCOCC4)o3)c1S2)NC(CO)CO` [Compound 411] was < 200 nM. The value for `O=C(COc1ccc2c(c1)Sc1cccc(-c3cc(=O)cc(N4CCOCC4)o3)c1S2)N1CCN(C(=O)c2ccco2)CC1` [Compound 414] was < 200 nM; that for `NC(=O)C1CCN(C(=O)COc2ccc3c(c2)Sc2cccc(-c4cc(=O)cc(N5CCOCC5)o4)c2S3)CC1` [Compound 416] was < 200 nM; that for `O=C(COc1ccc2c(c1)Sc1cccc(-c3cc(=O)cc(N4CCOCC4)o3)c1S2)N1CCSCC1` [Compound 417] was < 200 nM. `O=C(COc1ccc2c(c1)Sc1cccc(-c3cc(=O)cc(N4CCOCC4)o3)c1S2)N1CCCC(CO)C1` (stereo not shown) [Compound 418]: the IC50 was < 200 nM. Regarding `O=C(COc1ccc2c(c1)Sc1cccc(-c3cc(=O)cc(N4CCOCC4)o3)c1S2)Nc1cccnc1` [Compound 419], the IC50 was < 200 nM. The value for `O=C(COc1ccc2c(c1)Sc1cccc(-c3cc(=O)cc(N4CCOCC4)o3)c1S2)N[C@@H](CO)C(=O)OCc1ccccc1` [Compound 424] was < 200 nM; that for `O=C(COc1ccc2c(c1)Sc1cccc(-c3cc(=O)cc(N4CCOCC4)o3)c1S2)N1CCN(c2ccccn2)CC1` [Compound 426] was < 200 nM.

With `C[C@@H]1CN(C(=O)COc2ccc3c(c2)Sc2cccc(-c4cc(=O)cc(N5CCOCC5)o4)c2S3)C[C@H](C)O1` [Compound 433], the IC50 was < 200 nM.

Take `CN(C)CCN(C)C(=O)COc1ccc2c(c1)Sc1cccc(-c3cc(=O)cc(N4CCOCC4)o3)c1S2` [Compound 434]: the IC50 was < 200 nM. With `COCCN1CCN(C(=O)COc2ccc3c(c2)Sc2cccc(-c4cc(=O)cc(N5CCOCC5)o4)c2S3)CC1` [Compound 435], the IC50 was < 200 nM. Take `O=C(COc1ccc2c(c1)Sc1cccc(-c3cc(=O)cc(N4CCOCC4)o3)c1S2)N1CCN(CCO)CC1` [Compound 436]: the IC50 is < 200 nM. Consider `CC(C)N1CCN(C(=O)COc2ccc3c(c2)Sc2cccc(-c4cc(=O)cc(N5CCOCC5)o4)c2S3)CC1` [Compound 437], for which the IC50 was < 200 nM. To `CCN1CCN(C(=O)COc2ccc3c(c2)Sc2cccc(-c4cc(=O)cc(N5CCOCC5)o4)c2S3)CC1` [Compound 438] belongs < 200 nM; to `O=C(COc1ccc2c(c1)Sc1cccc(-c3cc(=O)cc(N4CCOCC4)o3)c1S2)NCc1ccncc1` [Compound 439], < 200 nM.

`O=C(COc1ccc2c(c1)Sc1cccc(-c3cc(=O)cc(N4CCOCC4)o3)c1S2)N1CCCCC1` [Compound 440]: the IC50 is < 200 nM. As to `O=C(COc1ccc2c(c1)Sc1cccc(-c3cc(=O)cc(N4CCOCC4)o3)c1S2)NCCN1CCNC1=O` [Compound 441], the IC50 is < 200 nM.

On to `CN1CCCN(C(=O)COc2ccc3c(c2)Sc2cccc(-c4cc(=O)cc(N5CCOCC5)o4)c2S3)CC1` [Compound 442], for which the IC50 is < 200 nM.

Regarding `O=C(COc1ccc2c(c1)Sc1cccc(-c3cc(=O)cc(N4CCOCC4)o3)c1S2)N(CCO)CCO` [Compound 444], the IC50 was < 200 nM.

`COCCN(CCOC)C(=O)COc1ccc2c(c1)Sc1cccc(-c3cc(=O)cc(N4CCOCC4)o3)c1S2` [Compound 445]: the IC50 was < 200 nM. Consider `O=C(COc1ccc2c(c1)Sc1cccc(-c3cc(=O)cc(N4CCOCC4)o3)c1S2)N1CCCCCC1` [Compound 446], for which the IC50 was < 200 nM. Regarding `CN1CCN(C(=O)COc2ccc3c(c2)Sc2cccc(-c4cc(=O)cc(N5CCOCC5)o4)c2S3)CC1` [Compound 450], the IC50 was < 200 nM. In the case of `O=c1cc(-c2cccc3c2Sc2ccc(S(=O)(=O)NCC(F)(F)F)cc2C3)oc(N2CCOCC2)c1` [Compound 454], the IC50 is < 200 nM. The value for `O=c1cc(-c2cccc3c2Sc2ccc(S(=O)(=O)NCC4CCCO4)cc2C3)oc(N2CCOCC2)c1` (stereo not shown) [Compound 455] was < 200 nM. On to `CCCCNS(=O)(=O)c1ccc2c(c1)Cc1cccc(-c3cc(=O)cc(N4CCOCC4)o3)c1S2` [Compound 457], for which the IC50 is < 200 nM.

On to `CCCNS(=O)(=O)c1ccc2c(c1)Cc1cccc(-c3cc(=O)cc(N4CCOCC4)o3)c1S2` [Compound 458], for which the IC50 is < 200 nM. To `C=CCNS(=O)(=O)c1ccc2c(c1)Cc1cccc(-c3cc(=O)cc(N4CCOCC4)o3)c1S2` [Compound 462] belongs < 200 nM; to `O=c1cc(-c2cccc3c2Sc2ccc(S(=O)(=O)NCCc4cnc[nH]4)cc2C3)oc(N2CCOCC2)c1` [Compound 465], < 200 nM; to `O=c1cc(-c2cccc3c2Sc2ccc(S(=O)(=O)NC(CO)CO)cc2C3)oc(N2CCOCC2)c1` [Compound 466], < 200 nM. The value for `O=c1cc(-c2cccc3c2Sc2ccc(S(=O)(=O)N4CCCC4)cc2C3)oc(N2CCOCC2)c1` [Compound 468] was < 200 nM; that for `NC(=O)C1CCN(S(=O)(=O)c2ccc3c(c2)Cc2cccc(-c4cc(=O)cc(N5CCOCC5)o4)c2S3)CC1` [Compound 469] was < 200 nM. On to `O=c1cc(-c2cccc3c2Sc2ccc(S(=O)(=O)N4CCCC(CO)C4)cc2C3)oc(N2CCOCC2)c1` (stereo not shown) [Compound 471], for which the IC50 was < 200 nM. To `O=c1cc(-c2cccc3c2Sc2ccc(S(=O)(=O)Nc4cccnc4)cc2C3)oc(N2CCOCC2)c1` [Compound 472] belongs < 200 nM; to `CC(=O)N1CCN(S(=O)(=O)c2ccc3c(c2)Cc2cccc(-c4cc(=O)cc(N5CCOCC5)o4)c2S3)CC1` [Compound 476], < 200 nM. The value for `C[C@@H]1CN(S(=O)(=O)c2ccc3c(c2)Cc2cccc(-c4cc(=O)cc(N5CCOCC5)o4)c2S3)C[C@H](C)O1` [Compound 478] was < 200 nM; that for `CN1CCN(S(=O)(=O)c2ccc3c(c2)Cc2cccc(-c4cc(=O)cc(N5CCOCC5)o4)c2S3)CC1` [Compound 480] was < 200 nM. On to `CCN1CCN(S(=O)(=O)c2ccc3c(c2)Cc2cccc(-c4cc(=O)cc(N5CCOCC5)o4)c2S3)CC1` [Compound 482], for which the IC50 is < 200 nM. To `O=c1cc(-c2cccc3c2Sc2ccc(S(=O)(=O)NCCO)cc2C3)oc(N2CCOCC2)c1` [Compound 484] belongs < 200 nM; to `O=c1cc(-c2cccc3c2Sc2ccc(S(=O)(=O)N4CCCCC4)cc2C3)oc(N2CCOCC2)c1` [Compound 485], < 200 nM; to `CCC(C)(C)NS(=O)(=O)c1ccc2c(c1)Cc1cccc(-c3cc(=O)cc(N4CCOCC4)o3)c1S2` [Compound 488], < 200 nM. Turning to `O=c1cc(-c2cccc3c2Sc2ccc(S(=O)(=O)N4CCCNCC4)cc2C3)oc(N2CCOCC2)c1` [Compound 489], the IC50 was < 200 nM. The value for `O=c1cc(-c2cccc3c2Sc2ccc(S(=O)(=O)N(CCO)CCO)cc2C3)oc(N2CCOCC2)c1` [Compound 490] was < 200 nM. The value for `O=C(COc1ccc2c(c1)Cc1cccc(-c3cc(=O)cc(N4CCOCC4)o3)c1S2)N1CCOCC1` [Compound 494] was < 200 nM. Take `O=C(COc1ccc2c(c1)Cc1cccc(-c3cc(=O)cc(N4CCOCC4)o3)c1S2)NCC(F)(F)F` [Compound 496]: the IC50 is < 200 nM. To `O=C(COc1ccc2c(c1)Cc1cccc(-c3cc(=O)cc(N4CCOCC4)o3)c1S2)NCC1CCCO1` (stereo not shown) [Compound 497] belongs < 200 nM; to `O=C(COc1ccc2c(c1)Cc1cccc(-c3cc(=O)cc(N4CCOCC4)o3)c1S2)NC1CCC1` [Compound 499], < 200 nM; to `CSCCNC(=O)COc1ccc2c(c1)Cc1cccc(-c3cc(=O)cc(N4CCOCC4)o3)c1S2` [Compound 500], < 200 nM.

For the molecule `O=C(COc1ccc2c(c1)Cc1cccc(-c3cc(=O)cc(N4CCOCC4)o3)c1S2)NC(CO)(CO)CO` [Compound 505], the IC50 was < 200 nM. The value for `NC(=O)C1CCN(C(=O)COc2ccc3c(c2)Cc2cccc(-c4cc(=O)cc(N5CCOCC5)o4)c2S3)CC1` [Compound 509] was < 200 nM. The value for `O=C(COc1ccc2c(c1)Cc1cccc(-c3cc(=O)cc(N4CCOCC4)o3)c1S2)N1CCSCC1` [Compound 510] was < 200 nM. The value for `O=C(COc1ccc2c(c1)Cc1cccc(-c3cc(=O)cc(N4CCOCC4)o3)c1S2)NC[C@@H]1CCCCC[C@@H]1O` [Compound 513] was < 200 nM. For the molecule `CCN1CCN(C(=O)COc2ccc3c(c2)Cc2cccc(-c4cc(=O)cc(N5CCOCC5)o4)c2S3)CC1` [Compound 524], the IC50 is < 200 nM. To `O=C(COc1ccc2c(c1)Cc1cccc(-c3cc(=O)cc(N4CCOCC4)o3)c1S2)N1CCNCC1` [Compound 528] belongs < 200 nM. With `O=C(COc1ccc2c(c1)Cc1cccc(-c3cc(=O)cc(N4CCOCC4)o3)c1S2)N1CCCCCC1` [Compound 532], the IC50 was < 200 nM.

Turning to `CCCNCCOc1ccc2c(c1)Cc1cccc(-c3cc(=O)cc(N4CCOCC4)o3)c1S2` [Compound 537], the IC50 was < 200 nM.

Source of the values: patent US7429660B2, “ATM inhibitors” (Kudos Pharmaceuticals Limited, priority 2003, dated 2008).
